Reference: ChEMBL document CHEMBL3046833, “Six new triterpenoid saponins from the leaves of Ilex oblonga and their inhibitory activities against TMV replication” (Chem Pharm Bull (Tokyo), 2007)
In brackets after ≈: the same amount, converted by molar mass.

Legend:
[1] = tested on: Tobacco mosaic virus; experiment: Antiviral activity against Tobacco mosaic virus (TMV) assessed as inhibition of viral replication at 0.2 mg/ml after 48 hr by leaf disk method relative to control; format: functional
[2] = tested on: Tobacco mosaic virus; experiment: Antiviral activity against Tobacco mosaic virus (TMV) assessed as inhibition of viral replication after 48 hr by leaf disk method; format: functional, organism-based
[3] = tested on: Tobacco mosaic virus; experiment: Antiviral activity against Tobacco mosaic virus (TMV) assessed as inhibition of viral replication at 0.025 mg/ml after 48 hr by leaf disk method relative to control; format: functional
[4] = tested on: Tobacco mosaic virus; experiment: Antiviral activity against Tobacco mosaic virus (TMV) assessed as inhibition of viral replication at 0.1 mg/ml after 48 hr by leaf disk method relative to control; format: functional
[5] = tested on: Tobacco mosaic virus; experiment: Antiviral activity against Tobacco mosaic virus (TMV) assessed as inhibition of viral replication at 0.05 mg/ml after 48 hr by leaf disk method relative to control; format: functional
[6] = tested on: Tobacco mosaic virus; experiment: Antiviral activity against Tobacco mosaic virus (TMV) assessed as inhibition of viral replication at 0.4 mg/ml after 48 hr by leaf disk method relative to control; format: functional

| Structure (SMILES) | inhibition at 200 µg/mL [1] [%] | other results |
| --- | --- | --- |
| C=C1C2C3=CC[C@@H]4[C@@]5(C)CC[C@H](O[C@@H]6OC[C@@H](O)[C@H](O)[C@H]6O)C(C)(C)[C@@H]5CC[C@@]4(C)[C@]3(C)CC[C@@]2(C(=O)O[C@@H]2O[C@H](CO)[C@@H](O)[C@H](O)[C@H]2O)CC[C@H]1C (stereo not given in full) [OBLONGANOSIDE D] | 37.7 | – |
| C=C1C2C3=CC[C@@H]4[C@@]5(C)CC[C@H](O)[C@@](C)(CO)[C@@H]5CC[C@@]4(C)[C@]3(C)CC[C@@]2(C(=O)O[C@@H]2O[C@H](CO)[C@@H](O)[C@H](O)[C@H]2O)CC[C@H]1C (stereo not given in full) | 29.6 | – |
| CC1=C2C3=CC[C@@H]4[C@@]5(C)CC[C@H](O[C@@H]6OC[C@@H](O)[C@H](O)[C@H]6O)[C@@](C)(CO)[C@@H]5CC[C@@]4(C)[C@]3(C)CC[C@@]2(C(=O)O[C@@H]2O[C@H](CO)[C@@H](O)[C@H](O)[C@H]2O)CC[C@H]1C [OBLONGANOSIDE C] | 38.6 | – |
| C=C1CC[C@]2(C(=O)O[C@@H]3O[C@H](CO)[C@@H](O)[C@H](O)[C@H]3O)CC[C@]3(C)C(=CC[C@@H]4[C@@]5(C)CC[C@H](O[C@@H]6OC[C@@H](O)[C@H](O)[C@H]6O)C(C)(C)[C@@H]5CC[C@]43C)C2[C@]1(C)O (stereo not given in full) [Oblonganoside F] | 39.7 | – |
| CC1=C2C3=CC[C@@H]4[C@@]5(C)CC[C@H](O[C@@H]6OC[C@@H](O)[C@H](O)[C@H]6O)C(C)(C)[C@@H]5CC[C@@]4(C)[C@]3(C)CC[C@@]2(C(=O)O[C@@H]2O[C@H](CO)[C@@H](O)[C@H](O)[C@H]2O)CC[C@H]1C | 33 | – |
| CC1=C(C)[C@H]2C3=CC[C@@H]4[C@@]5(C)CC[C@H](O[C@@H]6OC[C@@H](O)[C@H](O)[C@H]6O)C(C)(C)[C@@H]5CC[C@@]4(C)[C@]3(C)CC[C@@]2(C(=O)O[C@@H]2O[C@H](CO)[C@@H](O)[C@H](O)[C@H]2O)CC1 [Oblonganoside B] | 56.4 | – |
| CC1=C2C3=CC[C@@H]4[C@@]5(C)CC[C@H](O)[C@@](C)(CO)[C@@H]5CC[C@@]4(C)[C@]3(C)CC[C@@]2(C(=O)O[C@@H]2O[C@H](CO)[C@@H](O)[C@H](O)[C@H]2O)CC[C@H]1C | 47.3 | – |
| CC1=C(C)[C@H]2C3=CC[C@@H]4[C@@]5(C)CC[C@H](O)[C@@](C)(CO)[C@@H]5CC[C@@]4(C)[C@]3(C)CC[C@@]2(C(=O)O[C@@H]2O[C@H](CO)[C@@H](O)[C@H](O)[C@H]2O)CC1 | 41.1 | – |
| C=C1CC[C@]2(C(=O)O[C@@H]3O[C@H](CO)[C@@H](O)[C@H](O)[C@H]3O)CC[C@]3(C)C(=CC[C@@H]4[C@@]5(C)CC[C@H](O)[C@@](C)(CO)[C@@H]5CC[C@]43C)C2[C@]1(C)O (stereo not given in full) [Oblonganoside E] | 21.5 | – |
| CC1=C(C)[C@H]2C3=CC[C@@H]4[C@@]5(C)CC[C@@H]6O[C@H](CO)OC[C@@]6(C)[C@@H]5CC[C@@]4(C)[C@]3(C)CC[C@@]2(C(=O)O[C@@H]2O[C@H](CO)[C@@H](O)[C@H](O)[C@H]2O)CC1 [Oblonganoside A] | 80.3 | EC50 [2]: 74 µg/mL (≈ 110 µM); inhibition at 25 µg/mL [3]: 10.1%; inhibition at 100 µg/mL [4]: 61.9%; inhibition at 50 µg/mL [5]: 30.1%; Imax [6]: 87.3% |
